Measured values: publication PMC8010219, “Molecular basis for the interaction of cellular retinol binding protein 2 (CRBP2) with nonretinoid ligands” (Journal of Lipid Research, 2021)
Substitutions are numbered along the chain they refer to. Read-outs that look alike come from different tables or passages of the source.

How the values were obtained:
human CRBP2 [1] = biological target: T1, human CRBP2 (Homo sapiens, UniProt P50120); experiment: Chromophore (atROL) replacement fluorescence titration of holo-CRBP2; assay type: binding; conditions: for Kd: holo-CRBP2 titrated with ligand, 25°C, pH 7.4, average of at least three independent titrations, mean ± SD; for fold decrease in affinity (increase in Kd) as compared with 2-AG: ratio of Kd values versus 2-AG
T1 construct: inferred from the Ni-NTA purification; made in house; host or cells: Escherichia coli BL21(DE3)
T1 sequence (P50120 1-134): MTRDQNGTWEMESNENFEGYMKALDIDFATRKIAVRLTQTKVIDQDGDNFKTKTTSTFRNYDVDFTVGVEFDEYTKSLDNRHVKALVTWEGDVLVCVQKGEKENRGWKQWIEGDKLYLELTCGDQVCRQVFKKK
Method: (§1) The chromophore replacement assay was performed as described by Silvaroli et al. ([12]). CRBP2 in complex with atROL was excited with photons at a wavelength of 285 nm. Fluorescence emission was monitored at 350 and 480 nm. Titration with an alternative ligand causes liberation of atROL from the binding pocket and lack of fluorescence resonance energy transfer between the tryptophan residues and the retinoid moiety. The net effect is decrease in the fluorescence signal at 480 nm and concomitant increase at 350 nm (Fig. 1A, B). The experiments were performed on PerkinElmer Life Science LS55 spectrofluorometer at 25°C, using a 1 cm quart cuvette. Three microliters of buffer, 67 mM phosphate-buffered saline (pH 7.4%), 5% glycerol (v/v) containing 1 μg/ml of CRBP2 were dispensed into the cuvette. Increasing concentrations of tested compounds were delivered in acetonitrile. […] The obtained fluorescence spectra corrected for the background. Analysis of the changes in the maximum emission values at the different concentrations of ligands was used to calculate Kd values using the saturation single ligand binding model (SigmaPlot 11 software package; Systat Software). Each Kd listed in Table 1 represents an average value obtained from at least three independent titrations.

human CRBP2 [2] = biological target: T1, human CRBP2; experiment: X-ray crystal structures of CRBP2 in complex with ligands (enantiomer seen in binding pocket); conditions: racemic mixture used for crystallization
Method: The crystallization conditions were identical to those published by Lee et al. ([9]). Human CRBP2 in complexes with nonretinoid ligands were crystallized using the sitting drop vapor diffusion method. Prior to setting up crystallization drops, CRBP2 (9 mg/ml) was incubated with 50 μM of ligand in 10 mM Tris-HCl (pH 8.0) and 150 mM NaCl for 20 min on ice. Protein samples were mixed in a 1:1 ratio with 1 μl of 0.1 M Tris-HCl (pH 8%) and 22–28% polyethylene glycol 3350. The wells were sealed and stored at room temperature. Crystals were collected, cryoprotected in 10% glycerol, 10% polyethylene glycol 2000 (v/v), and flash frozen in liquid nitrogen.
X-ray diffraction data were collected at the Advanced Photon Source Northeastern Collaborative Access Team 24-ID-C and 24-ID-E beamlines. Data reduction was performed using iMosflm software package ([17]). The structures were solved by molecular replacement with PHASER_MR ([18]) and the refined model of CRBP2 [Protein Data Bank (PDB) accession code: 6BTI] as a search model. Adjustments to the protein model were made with COOT ([19]), and the initial model was refined with PHENIX ([20]). […] The coordinates and structure factors for each of the structure analyzed in this report were deposited in the PDB under the following accession codes: 7JVG, 7JVY, 7JWD, 7JWR, 7K3I, 7JX2, and 7JZ5 (Table 2).

human CRBP2 [3] = biological target: T1, human CRBP2; design: method as in PMID 32195347; conditions: holo-CRBP2 titrated with ligand, cited from earlier work
CRBP1 = biological target: CRBP1; design: method as in PMID 27830500; conditions: atROL binding to CRBP1; cited from earlier work
CRBP2^T51I/V62M = biological target: T2, CRBP2^T51I/V62M (Homo sapiens, UniProt P50120, T52I/V63M); experiment: Chromophore (atROL) replacement fluorescence titration of the mutant protein; assay type: binding
T2 construct: made in house; host or cells: Escherichia coli BL21(DE3)
T2 sequence (P50120 1-134 T52I/V63M): T1 sequence (P50120 1-134) with T52I, V63M
Text: To introduce substitute mutations T51/I and V62/M, cDNA of CRBP2 was cloned into pCR 2.1 vector (Thermo Fisher Scientific). The mutations were introduced by PCR using 5’ phosphorylated primers of the following sequences: T51/I: forward, […]; reverse, […]; V62/M: forward, […]; reverse, […]. The presence of desired substitutions was verified by sequencing. To obtain mutated proteins, their cDNAs harboring these changes were cloned into pET3b vector and expressed and purified as described above.
as §1, with “cuvette.” for “cuvette. Increasing concentrations of tested compounds were delivered in acetonitrile.”, “Analysis of the changes in the maximum emission values at the different concentrations of ligands was used to calculate Kd values using the saturation single ligand binding model (SigmaPlot 11 software package; Systat Software). Each Kd listed in Table 1 represents an average value obtained from at least three independent titrations.” left out

| Structure (SMILES) | Kd (human CRBP2 [1]) | fold decrease in affinity (increase in Kd) as compared with 2-AG (human CRBP2 [1]) | other results |
| --- | --- | --- | --- |
| CCCCC/C=C\C/C=C\C/C=C\C/C=C\CCCC(=O)SCC(O)CO (stereo not drawn) [1-ASG, Arachidonoyl-1-thio-glycerol] | 89.3 ± 14.3 nM |  | fold increase of the Kd value on substitution of the ester group with a thioester bond (human CRBP2 [1]; as compared with 1-AG): ~2 fold; enantiomer exclusively present in the binding pocket (electron density) (human CRBP2 [2]): R-enantiomer |
| CCCCCCCCCC(=O)OCC(O)CO (stereo not drawn) [1-DG, 1-Decanoyl glycerol] | 780 ± 86.5 nM | 29 fold |  |
| CCCCC/C=C\C/C=C\CCCCCCCC(=O)OC(CO)CO [2-LG, 2-Linoleoyl glycerol] |  |  | Kd (human CRBP2 [3]; read-out: Kd): 40 ± 4.4 nM |
| CCCCCCCC/C=C\CCCCCCCC(=O)OC(CO)CO [2-OG, 2-Oleoyl glycerol] |  |  | Kd (human CRBP2 [3]; read-out: Kd): 65.4 ± 4.4 nM |
| CCCCCCCCCCCCCCCCCC(=O)OC(CO)CO [2-SG, 2-Stearoyl glycerol] | 54.8 ± 9.8 nM | 2 fold |  |
| CCCCC/C=C\C/C=C\C/C=C\C/C=C\CCCC(=O)OCC(O)CO (stereo not drawn) [1-AG, 1-Arachidonoyl glycerol] |  |  | enantiomer exclusively present in the binding pocket (electron density) (human CRBP2 [2]): S-enantiomer; Kd (human CRBP2 [3]): 37.9 ± 3.3 nM |
| CCCCCCCCCCCCCCCCOCC(O)CO (stereo not drawn) [1-O-HG, 1-O-hexadecyl glycerol] | 153 ± 7.3 nM |  |  |
| CCCCC/C=C\C/C=C\C/C=C\C/C=C\CCCC(=O)NCCO [AEA, Arachidonoyl ethanolamide] |  | ~25 fold | Kd (human CRBP2 [3]; read-out: Kd): 663 ± 24 nM |
| CCCCC/C=C\C/C=C\CCCCCCCC(=O)OCC(O)CO (stereo not drawn) [1-LG, 1-Linoleoyl glycerol] | 97.1 ± 27.6 nM |  |  |
| CCCCCCCCCCCCCCCC(=O)OC(CO)CO [2-PG, 2-Palmitoyl glycerol] | 51.2 ± 7.7 nM |  |  |
| CC1=C(/C=C/C(C)=C/C=C/C(C)=C/CO)C(C)(C)CCC1 [atROL, all-trans-retinol] |  |  | Kd (CRBP1): ~10 nM |
| CCCCCCCCCCCC(=O)OC(CO)CO [2-LaG, 2-Lauroyl glycerol] | 172 ± 8.8 nM | over 6 fold |  |
| CCCCCCCCCCCCCCCCCCCC(=O)OCC(O)CO (stereo not drawn) [1-ArG, 1-Arachidoyl glycerol] | 133 ± 33.1 nM | ~5 fold |  |
| CCCCC/C=C\C/C=C\C/C=C\C/C=C\CCCCOC(CO)CO [2-AGE, 2-Arachidonoyl glycerol ether] | 45.7 ± 2.7 nM |  |  |
| CCCCC/C=C\C/C=C\C/C=C\C/C=C\CCCC(=O)OC(CO)CO [2-AG, 2-Arachidonoyl glycerol] |  |  | Kd (CRBP2^T51I/V62M; CRBP2 T51I/V62M double mutant): 447 ± 46.1 nM; fold decrease in the affinity at the mutant (CRBP2^T51I/V62M; CRBP2^T51I/V62M versus WT CRBP2): over 16 fold; Kd (human CRBP2 [3]): 27.1 ± 2.5 nM |
| CCCCC/C=C\C/C=C\C/C=C\C/C=C\CCCCCC(=O)O [ADA, Docosatetraenoic acid] | 217 ± 14.4 nM | eight times higher |  |
